Our source for the murine tumor volume values is patent publication US8410175B2, “Anticancer effect enhancer” (Nippon Kayaku Kabushiki Kaisha, priority 2004, dated 2013).

Assay [1] concerns Murine Lewis lung carcinoma (LLC) cells. As to the kind of experiment: Murine lung cancer model, tumor volume growth. It is filed as in vivo. Also noted: dose or concentration left out as unconfirmed. Conditions: LLC s.c. in C57BL6 mice; two weeks. The protocol: Tumor volume was calculated as 0.5×{tumor length (mm)}[…]{tumor width (mm)}^2. The […] was calculated by student t-test.
(§1) Murine Lewis lung carcinoma (LLC) cells, lung adenocarcinoma cells, were obtained from the Tohoku University Cell Resource Center for Biomedical Research and were incubated with DMEM plus 10% fetal bovine serum until cell proliferation was sufficient to perform the experiments. The LLC cells were adjusted to concentrations of 2×10^5 cells/100 μl with phosphate buffer saline (PBS), and were inoculated Six-week-old male C57BL6 mice purchased from Charles River Japan, Inc. (Tokyo, Japan) and Clea Japan, Inc. (Tokyo, Japan) subcutaneously (2×10^5 cells/100 μl/mouse) at the right hypochondrium. Mice were maintained under specific-pathogen-free conditions, and provided with sterile food and water. When transplanted tumors grew to approximately 100 mm^3 in tumor volume, animals were equally divided into four groups (Control group, n=6; C, NO donor group, n=6; N, Chemotherapy group, n=6; CTX, and NO plus chemotherapy group, n=6; N+CTX). Tumor volume was calculated as 0.5×{tumor length (mm)}×{tumor width (mm)}^2. […]

The subject of assay [2] is Colon 26 cells, murine colon cancer cells. As to the kind of experiment: Murine colon cancer model, tumor volume growth. Type of assay: in vivo. Also noted: dose or concentration left out as unconfirmed. The following applies: colon 26 s.c. in BALB/c mice; two weeks. How it is done: Tumor volume was calculated as 0.5×{tumor length (mm)}×{tumor width (mm)}^2. The P value was calculated by student t-test.
as §1, with “Colon 26” for “Murine Lewis lung carcinoma (LLC)”, “murine colon cancer” for “lung adenocarcinoma”, “RPMI 1640” for “DMEM”, “colon 26” for “LLC”, “female BALB/c” for “male C57BL6”, “subcutanously” for “subcutaneously”

Turning to `O=[N+]([O-])OCC(CO[N+](=O)[O-])O[N+](=O)[O-]` [NO donor, nitroglycerin], the murine tumor volume result in assay [1] and in assay [2] was “rapid tumor growth” each time.
